In a compilation of properties of binary mixtures (doi:10.1051/jnwpu/20234130557):

Test: xn = mol fraction of the nth substance listed
Settings: 298.15 K, 101.3 kPa

CCCC[n+]1cccc(C)c1.O=S(=O)([N-]S(=O)(=O)C(F)(F)F)C(F)(F)F + CC(C)O
electrical conductivity (x2 = 0.0802): 0.334 S/m | electrical conductivity (x2 = 0.1045): 0.41 S/m | electrical conductivity (x2 = 0.1234): 0.462 S/m | electrical conductivity (x2 = 0.1455): 0.511 S/m | electrical conductivity (x2 = 0.177): 0.566 S/m | electrical conductivity (x2 = 0.2193): 0.613 S/m | electrical conductivity (x2 = 0.2497): 0.633 S/m | electrical conductivity (x2 = 0.4682): 0.587 S/m | electrical conductivity (x2 = 0.6921): 0.441 S/m | electrical conductivity (x2 = 0.9362): 0.3 S/m

CC(C)O + CCCC[n+]1cccc(C)c1.O=S(=O)([N-]S(=O)(=O)C(F)(F)F)C(F)(F)F
electrical conductivity (x1 = 1): 0.27 S/m

CCCC[n+]1cccc(C)c1.O=S(=O)([N-]S(=O)(=O)C(F)(F)F)C(F)(F)F + CCO
electrical conductivity (x2 = 0.2427): 0.445 S/m | electrical conductivity (x2 = 0.5689): 0.809 S/m | electrical conductivity (x2 = 0.7583): 1.04 S/m | electrical conductivity (x2 = 0.8896): 0.992 S/m | electrical conductivity (x2 = 0.9196): 0.883 S/m | electrical conductivity (x2 = 0.9371): 0.783 S/m

CCCC[n+]1cccc(C)c1.O=S(=O)([N-]S(=O)(=O)C(F)(F)F)C(F)(F)F + CO
electrical conductivity (x2 = 0): 0.273 S/m | electrical conductivity (x2 = 0.2345): 0.453 S/m | electrical conductivity (x2 = 0.5544): 0.951 S/m | electrical conductivity (x2 = 0.7016): 1.38 S/m | electrical conductivity (x2 = 0.8346): 1.93 S/m | electrical conductivity (x2 = 0.882): 2.1 S/m | electrical conductivity (x2 = 0.9199): 2.13 S/m
